{"source": "patent US8357379B2", "about": "“High concentration baclofen preparations” (Board of Regents, The University of Texas System, priority 2004, dated 2013)", "key": {"[1]": {"experiment": "Practical solubility by direct dissolution in normal saline, HPLC after 0.22-micron filtration", "assay_type": "physicochemical", "settings": "about 23° C.", "protocol": "The inventors attempted to prepare aqueous baclofen solutions at concentrations of 3 mg/mL, 4 mg/mL, and 5 mg/mL by direct dissolution in 0.9% sodium chloride injection, USP (normal saline). The normal saline was commercially procured by the inventors and was at ambient room temperature (about 23° C.) for use in the testing. Appropriate amounts of authentic baclofen powder were weighed and added to the normal saline and shaken to aid in dissolution. […] Both the 4-mg/mL and especially the 5-mg/mL concentration retained large amounts of undissolved powder. […] The solutions were visibly unacceptable for use as an injection. […] The inventors believe that this the concentration represents the “practical solubility” of baclofen.\nAs used herein, the “practical solubility” is the concentration of baclofen that can be dissolved using simple practical dissolution steps such as adding the powder to an aqueous solvent and then shaking or stirring the solvent by hand or with a mechanical device. When attempting to prepare solutions having concentrations higher than the practical solubility concentration, it is common to observe residual undissolved matter, precipitation of microparticulates, or both."}, "[2]": {"experiment": "Time to complete dissolution during preparation of high concentration solutions", "assay_type": "physicochemical", "protocol": "Solubilization of Baclofen by Heat and Sonication. Appropriate amounts of baclofen were weighed and added to appropriate volumes of normal saline in order to produce mixtures containing 4, 5, 6, 8 or 10 mg/mL baclofen. All samples had undissolved baclofen powder present immediately after mixing. Samples having concentrations of 4, 5 or 6 mg/mL of baclofen were heated to 70° C. Samples having concentrations of 8 and 10 mg/mL of baclofen were heated to 95° C. Intense agitation was applied to all of the samples by sonicating the samples during the heating step. Heating and sonication were continued until all of the powder dissolved, and a clear solution with no residual particulate matter resulted. For the 4, 5, and 6 mg/mL samples, this occurred in about 20 to 30 minutes. […] Again, the solutions were clear with no residual particulate matter.\nSolubilization of Baclofen by Heat and High-Speed Stirring. Appropriate amounts of baclofen were weighed and added to appropriate volumes of normal saline in order to produce mixtures containing 4, 5, 6, 8 or 10 mg/mL baclofen. All samples had undissolved baclofen powder present immediately after mixing. Samples having concentrations of 4, 5 or 6 mg/mL of baclofen were heated to 70° C. Samples having concentrations of 8 and 10 mg/mL of baclofen were heated to 95° C. Intense agitation was applied to all of the samples by high-speed stirring. A high-speed stir bar was placed in each of the containers for each of the baclofen concentrations was stirred using a Thermolyne stirrer at a speed of about 600 rpm while the solutions were heated. This was designed to simulate the use of a high-speed high shear mixer in a larger industrial setting. Again the heating at 70° C. for the 4, 5, and 6 mg/mL concentrations and to 95° C. for the 8 and 10 mg/mL concentrations and high-speed stirring were continued until all of the powder had dissolved and a clear solution with no residual particulate matter resulted. This occurred within about 20 minutes with all samples.\nAcidification with Back Titration. Baclofen concentrations of 4, 5, 6, 8, and 10 mg/mL were prepared by dissolving appropriate amounts of baclofen powder in 0.1 N hydrochloric acid. […] The solutions were then back titrated with 0.1 N sodium hydroxide to reach a pH about 5.0 to 5.1, which is within the current product pH range for commercial baclofen solutions, and brought to volume with 0.9% sodium chloride. After complete dissolution had occurred, the solutions were filtered through 0.22-micron sterilizing filters into sterile empty vials. The vials were stored at room temperature, under refrigeration, and at 37° C. to simulate “in use” conditions in an implanted pump.\nAlkalinization with Back Titration. Baclofen concentrations of 4, 5, 6, 8, and 10 mg/mL were prepared by dissolving appropriate amounts of baclofen powder in 0.1 N sodium hydroxide. […] The solutions were then back titrated with 0.1 N hydrochloric acid to reach a pH about 6.9 to 7.0, which is within the current product range, and brought to volume with 0.9% sodium chloride. After complete dissolution had occurred, the solutions were filtered through 0.22-micron sterilizing filters into sterile empty vials. The vials were stored at room temperature, under refrigeration, and at 37° C. to simulate “in use” conditions in an implanted pump."}, "[3]": {"settings": "intrathecal injection at effective CSF concentrations vs oral administration; cited from earlier work"}}}
{"molecule": "NCC(CC(=O)O)c1ccc(Cl)cc1", "note": "(centres unmarked) [Baclofen, 4-amino-3-(p-chlorophenyl) butyric acid]", "values": [{"measurement": "solubility at 1 week", "setting": "[1]; 0.9% sodium chloride injection, USP (normal saline), saline or isotonic, thermodynamic from solid, normal saline, putative 4 mg/mL and 5 mg/mL samples, shaking one week, filtered 0.22-micron, HPLC, read-out: amount of baclofen actually dissolved (practical solubility)", "result": "3300 to 3500", "unit": "µg/mL"}, {"measurement": "complete dissolution by direct dissolution", "setting": "[1]; 4-mg/mL and 5-mg/mL in normal saline, vigorous shaking 60 minutes, then automated shaking for one week", "result": "failed to result in complete dissolution"}, {"measurement": "time until all powder dissolved (clear solution)", "setting": "[2]; 4, 5, 6 mg/mL at 70° C. and 8, 10 mg/mL at 95° C., normal saline, high-speed stirring about 600 rpm (Example 2)", "result": "≤ 20", "unit": "min"}, {"measurement": "time until powder dissolved (clear solution)", "setting": "[2]; 4, 5, 6, 8, and 10 mg/mL in 0.1 N hydrochloric acid (Example 3)", "result": "within a few minutes"}, {"measurement": "time until powder dissolved (clear solution)", "setting": "[2]; 4, 5, 6, 8, and 10 mg/mL in 0.1 N sodium hydroxide (Example 4)", "result": "within a few minutes"}, {"measurement": "time until all powder dissolved (clear solution)", "setting": "[2]; 4, 5, and 6 mg/mL in normal saline, 70° C., sonication (Example 1)", "result": "20 to 30", "unit": "min"}, {"measurement": "time until all powder dissolved (clear solution)", "setting": "[2]; 8 and 10 mg/mL in normal saline, 95° C., sonication (Example 1)", "result": "about 20 minutes"}, {"measurement": "plasma concentrations with intrathecal injection relative to oral administration", "setting": "[3]", "result": 100, "unit": "times less"}]}
